Measured values: patent US12060347B2 (BRISTOL-MYERS SQUIBB COMPANY, priority 2016, dated 2024)

The compounds below were run against T1, human PAR4 (Homo sapiens, UniProt Q96RI0) (assay: PAR4 FLIPR assay: antagonism of agonist-peptide-induced calcium mobilization in PAR4-expressing HEK293 cells). Details: H-Ala-Phe(4-F)-[…]NH2-induced intracellular calcium mobilization, 11-point curves.
T1 construct: expressed in transfected cells; host or cells: HEK293 PAR4 Clone 1.2A (BMS Arctic ID 383940)
T1 sequence (Q96RI0 18-385): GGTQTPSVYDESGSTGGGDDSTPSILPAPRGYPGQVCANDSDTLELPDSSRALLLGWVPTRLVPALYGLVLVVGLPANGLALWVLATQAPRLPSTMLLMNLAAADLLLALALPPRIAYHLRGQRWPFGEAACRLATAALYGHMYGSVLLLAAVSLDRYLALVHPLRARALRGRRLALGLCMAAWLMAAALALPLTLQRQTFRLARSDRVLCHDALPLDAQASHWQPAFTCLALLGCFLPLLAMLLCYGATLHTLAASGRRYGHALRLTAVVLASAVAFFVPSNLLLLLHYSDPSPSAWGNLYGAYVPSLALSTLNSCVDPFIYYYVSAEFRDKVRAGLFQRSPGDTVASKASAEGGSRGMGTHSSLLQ
Type: cell-based

IC50 [nM] | SMILES
55 | CCOc1cnc2c(-c3cc4ccccc4o3)cc(C)cc2n1 [Example 661, 5-(benzofuran-2-yl)-2-ethoxy-7-methylquinoxaline]
1.2 | COc1cnc2c(-c3nc4cc(F)c(O[C@@H](C)[C@@H](C)OC(=O)Nc5cnc(OCCO)nc5)nc4s3)cc(Cl)cc2c1 [Example 774, (2R,3S)-3-((2-(6-chloro-3-methoxyquinolin-8-yl)-6-fluorothiazolo[5,4-b]pyridin-5-yl)oxy) butan-2-yl (2-(2-hydroxyethoxy)pyrimidin-5-yl)carbamate]
1.8 | COc1cnc2c(-c3nc4cc(F)c(O[C@@H](C)[C@@H](C)OC(=O)Nc5ccc(C)nc5)nc4s3)cc(C)cc2n1 [Example 710, (2R,3S)-3-((6-fluoro-2-(2-methoxy-7-methylquinoxalin-5-yl)thiazolo[5,4-b]pyridin-5-yl)oxy)butan-2-yl (6-methylpyridin-3-yl)carbamate]
2.8 | COc1cnc2c(-c3nc4c(Cl)c(F)c(O[C@@H](C)[C@@H](C)OC(=O)Nc5cncc(F)c5)cc4s3)cc(C)cc2c1 [Example 804, (2R,3S)-3-((4-chloro-5-fluoro-2-(3-methoxy-6-methylquinolin-8-yl)benzo[d]thiazol-6-yl)oxy)butan-2-yl (5-fluoropyridin-3-yl)carbamate]
1.7 | COc1cnc2c(-c3nc4cc(F)c(O[C@@H](C)[C@@H](C)OC(=O)Nc5ccnc(OCCO)c5)nc4s3)cc(C)cc2n1 [Example 719, (2R,3S)-3-((6-fluoro-2-(2-methoxy-7-methylquinoxalin-5-yl)thiazolo[5,4-b]pyridin-5-yl)oxy)butan-2-yl (2-(2-hydroxyethoxy)pyridin-4-yl)carbamate]
2 | COc1cnc2c(-c3nc4cc(F)c(O[C@@H](C)[C@@H](C)OC(=O)Nc5cncnc5)nc4s3)cc(C)cc2n1 [Example 716, (2R,3S)-3-((6-fluoro-2-(2-methoxy-7-methylquinoxalin-5-yl)thiazolo[5,4-b]pyridin-5-yl)oxy)butan-2-yl pyrimidin-5-ylcarbamate]
3.2 | COc1cnc2c(-c3nc4cc(F)c(O[C@@H](C)[C@@H](C)OC(=O)Nc5cnc(CCO)nc5)nc4s3)cc(C)cc2n1 [Example 720, (2R,3S)-3-((6-fluoro-2-(2-methoxy-7-methylquinoxalin-5-yl)thiazolo[5,4-b]pyridin-5-yl)oxy)butan-2-yl (2-(2-hydroxyethyl)pyrimidin-5-yl)carbamate]
2.4 | COc1cnc2c(-c3nc4cc(F)c(O[C@@H](C)[C@@H](C)OC(=O)Nc5cnc(OC)nc5)nc4s3)cc(C)cc2n1 [Example 711, (2R,3S)-3-((6-fluoro-2-(2-methoxy-7-methylquinoxalin-5-yl)thiazolo[5,4-b]pyridin-5-yl)oxy)butan-2-yl (2-methoxypyrimidin-5-yl)carbamate]
0.9 | COc1cnc2c(-c3nc4cc(F)c(O[C@@H](C)[C@@H](C)OC(=O)Nc5cnc(C)nc5)nc4s3)cc(C)cc2n1 [Example 731, (2R,3S)-3-((6-fluoro-2-(2-methoxy-7-methylquinoxalin-5-yl)thiazolo[5,4-b]pyridin-5-yl)oxy)butan-2-yl (2-methylpyrimidin-5-yl)carbamate]

Second part, the compound before the results:

SMILES | IC50 [nM]
Cc1ccc2sc(-c3cc(C)cc4nc(OC(F)F)cnc34)nc2c1 [Example 68, 2-(2-(difluoromethoxy)-7-methylquinoxalin-5-yl)-5-methylbenzo[d]thiazole] | 120
COc1cnc2c(-c3nc4cc(F)c(O[C@@H](C)[C@@H](C)OC(=O)Nc5ccc(CN6CCOCC6)nc5)cc4s3)cc(C)cc2n1 [Example 521, (2R,3S)-3-((5-fluoro-2-(2-methoxy-7-methylquinoxalin-5-yl)benzo[d]thiazol-6-yl)oxy) butan-2-yl (6-(morpholinomethyl)pyridin-3-yl)carbamate] | 24
COCc1cnc2c(-c3nc4c(C)cc(OC)cc4s3)cc(F)cc2n1 [Example 206, 2-(7-fluoro-2-(methoxymethyl)quinoxalin-5-yl)-6-methoxy-4-methylbenzo[d]thiazole] | 0.7
COCc1cnc2c(-c3nc4c(F)c(F)c(OC)cc4s3)cc(C)cc2n1 [Example 267, 4,5-difluoro-6-methoxy-2-(2-(methoxymethyl)-7-methylquinoxalin-5-yl)benzo[d]thiazole] | 0.8
COc1cnc2c(-c3nc4cc(F)c(OC[C@@H](C)OC(=O)Nc5ccc(OCCO)nc5)cc4s3)cc(C)cc2n1 [Example 572, (R)-1-((5-fluoro-2-(2-methoxy-7-methylquinoxalin-5-yl)benzo[d]thiazol-6-yl)oxy)propan-2-yl (6-(2-hydroxyethoxy)pyridin-3-yl)carbamate] | 0.9
COc1cnc2c(-c3nc4c(Cl)c(F)c(OCCOC(=O)Nc5cnn(C)c5)cc4s3)cc(C)cc2n1 [Example 365, 2-((4-chloro-5-fluoro-2-(2-methoxy-7-methylquinoxalin-5-yl)benzo[d]thiazol-6-yl)oxy) ethyl (1-methyl-1H-pyrazol-4-yl)carbamate] | 2.5
COc1cnc2c(-c3nc4cc(C)c(OC)cc4s3)cc(C)cc2n1 [Example 279, 6-methoxy-2-(2-methoxy-7-methylquinoxalin-5-yl)-5-methylbenzo[d]thiazole] | 18
Cc1cc(-c2nc3ccc(OCCNC(=O)OC4CCOCC4)cc3s2)c2ncc(OC(F)F)nc2c1 [Example 20, tetrahydro-2H-pyran-4-yl (2-((2-(2-(difluoromethoxy)-7-methylquinoxalin-5-yl)benzo[d]thiazol-6-yl)oxy)ethyl)carbamate] | 30
COCc1cnc2c(-c3nc4c(C)cc(OCCNS(=O)(=O)c5ccc(F)cc5)cc4s3)cc(C(N)=O)cc2n1 [Example 225, 8-(6-(2-(4-fluorophenylsulfonamido)ethoxy)-4-methylbenzo[d]thiazol-2-yl)-3-(methoxymethyl)quinoxaline-6-carboxamide] | 54
COCc1cnc2c(-c3nc4c(C(O)c5ccncc5)cc(OC)cc4s3)cc(C)cc2n1 (stereo not drawn) [Example 172, (6-methoxy-2-(2-(methoxymethyl)-7-methylquinoxalin-5-yl)benzo[d]thiazol-4-yl)(pyridin-4-yl)methanol] | 1.7
Cc1cc(-c2nc3c(C)cc(OCCNS(=O)(=O)c4ccc(F)cc4F)cc3s2)c2ncc(OC(F)F)nc2c1 [Example 84, N-(2-(2-(2-(difluoromethoxy)-7-methylquinoxalin-5-yl)-4-methylbenzo[d]thiazol-6-yloxy)ethyl)-2,4-difluorobenzenesulfonamide] | 2.5
COc1cc(C(O)C2(CO)CCC2)c2nc(-c3cc(C)cc4nc(OC)cnc34)sc2c1 (stereo not drawn) [Example 646, (1-(hydroxymethyl)cyclobutyl)(6-methoxy-2-(2-methoxy-7-methylquinoxalin-5-yl)benzo[d]thiazol-4-yl)methanol] | 3.8
COc1cnc2c(-c3nc4cc(F)c(OC[C@@H](C)OC(=O)Nc5ccc(C(=O)N6CC[C@@H](O)C6)nc5)cc4s3)cc(C)cc2n1 [Example 475] | 4.8
COCc1cnc2c(-c3nc4c(C)cc(OC)cc4s3)cc(OC(F)(F)F)cc2n1 [Example 203, 6-methoxy-2-(2-(methoxymethyl)-7-(trifluoromethoxy)quinoxalin-5-yl)-4-methylbenzo[d] thiazole] | 4.1
CNC(=O)c1cc(NC(=O)O[C@H](C)COc2cc3sc(-c4cc(C)cc5nc(OC)cnc45)nc3cc2F)ccn1 [Example 443, (R)-1-((5-fluoro-2-(2-methoxy-7-methylquinoxalin-5-yl)benzo[d]thiazol-6-yl)oxy)propan-2-yl (2-(methylcarbamoyl)pyridin-4-yl)carbamate] | 0.6
COc1cnc2c(-c3nc4c(Cl)c(F)c(OCCOC(=O)Nc5nnc(C)o5)cc4s3)cc(C)cc2n1 [Example 366, 2-((4-chloro-5-fluoro-2-(2-methoxy-7-methylquinoxalin-5-yl)benzo[d]thiazol-6-yl)oxy)ethyl (5-methyl-1,3,4-oxadiazol-2-yl) carbamate] | 550
CCOC(=O)C1(C(O)c2cc(OC)cc3sc(-c4cc(C)cc5nc(OC)cnc45)nc23)CCC1 (stereo not drawn) [Example 644, Ethyl 1-(hydroxy(6-methoxy-2-(2-methoxy-7-methylquinoxalin-5-yl)benzo[d]thiazol-4-yl)methyl)cyclobutanecarboxylate] | 21
COc1cnc2c(-c3nc4cc(F)c(OC[C@@H](C)OC(=O)Nc5cccnc5)cc4s3)cc(C)cc2n1 [Example 347, (R)-1-((5-fluoro-2-(2-methoxy-7-methylquinoxalin-5-yl)benzo[d]thiazol-6-yl)oxy)propan-2-yl pyridin-3-ylcarbamate] | 0.8
CNc1cnc2c(-c3nc4cc(F)c(O[C@@H](C)[C@@H](C)OC(=O)Nc5cnc(C)nc5)cc4s3)cc(C)cc2n1 [Example 390, (2R,3S)-3-((5-fluoro-2-(7-methyl-2-(methylamino)quinoxalin-5-yl)benzo[d]thiazol-6-yl)oxy)butan-2-yl (2-methylpyrimidin-5-yl)carbamate] | 3.6
COc1cnc2c(-c3nc4c(C)c(F)c(OC)cc4s3)cc(CO)cc2n1 [Example 243, (8-(5-fluoro-6-methoxy-4-methylbenzo[d]thiazol-2-yl)-3-methoxyquinoxalin-6-yl) methanol] | 1.2
COc1cnc2c(-c3nc4cc(F)c(O[C@@H](C)[C@@H](C)OC(=O)Nc5cncc(OCCO)c5)cc4s3)cc(C)cc2n1 [Example 534, (2R,3S)-3-((5-fluoro-2-(2-methoxy-7-methylquinoxalin-5-yl)benzo[d]thiazol-6-yl)oxy) butan-2-yl (5-(2-hydroxyethoxy)pyridin-3-yl)carbamate] | 0.9
